Results reported in patent US20220273614A1, “INTRAVENOUS VITAMIN C THERAPY PROTOCOL FOR THE TREATMENT OF CANCER” (Riordan Clinic, priority 2019, published 2022).
Entries after “also recorded” stand apart in the source; their conditions may differ.

Key:
terminal cancer patients [1] = test: Safety and adverse events of continuous IVC infusion (Riordan trial); assay type: in vivo, human
Description: (§1) The second trial of the treatment of cancer patients by continuous infusions was conducted by Dr. Riordan. In this Phase I clinical trial (hereafter referred to as the Riordan trial), patients were administered continuous infusions using an infusion pump [See for example Ref 1]. In the Riordan Clinic trial, patients were treated by continuous infusion, which was administered over much longer periods of time than bolus intermittent treatments. For most patients, the duration of the continuous infusion was at least 20 hours, as the duration of bolus infusion is from one hour to three hours, depending on the dosage.
(§2) The trial lasted eight weeks and involved terminal patients with poor prognosis. Twenty-four (24) subjects were given continuous IVC at doses between 150 and 710 mg/kg/day (10-50 grams per day). Most of the patients had colon cancer with liver and lung metastasis and three patients had pancreatic or liver cancer.

terminal cancer patients [2] = test: Blood chemistry (lactate dehydrogenase, glucose) and survival in cancer patients on continuous IVC (updated analysis of Riordan trial); assay type: in vivo, human
Description: as §1
as §2, with “cancer. All patients had several chemotherapy/radiation treatments before entering the study.” for “cancer.”
(§3) Recently, previously unpublished parameters from the clinical study were analyzed, including blood chemistry and blood count parameters that are reportedly related to patient prognosis and degree of inflammation [See for example Ref 2]. This included: absolute neutrophil and lymphocyte counts and the neutrophil-to-lymphocyte ratio; lactate dehydrogenase, an enzyme involved in tumor initiation, metastasis, and recurrence; creatinine, the depletion of which is associated with cachexia; and glucose, as hyperglycemia is common in cancer patients.

[3] = test system: patients suffering from cancer; test: Pulse-press intravenous vitamin C protocol in cancer patients (Example 3); assay type: in vivo, human
Description: Intravenous vitamin C therapy is given by intermittent, high dose infusion that involves administering high-dose vitamin C (15-100 grams) over a 1-2 hour window and repeated twice weekly (every 2-4 days). The intermittent frequency of high-dose administration is referred to as a PULSED approach or as a PULSE dose.
As an adjunct to high-dose intermittent vitamin C infusions, experiments described herein have led to the developments of a method for administering continuous low to mid doses of vitamin C infusion using an elastomeric pump (non-electric) infusion pump over an 8 to 48 hour window. This method of continuous infusion targets a therapeutic dose anywhere between 4 to 50 grams of vitamin C per infusion window and is referred to as a PRESS approach or a PRESS dose.
The intravenous vitamin C+(IVC+) protocol for the treatment of cancer, and other chronic conditions, described herein combines the pulse approach with a press protocol into a PULSE-PRESS approach whereby vitamin C infusions alternate between a high-dose rapid infusion with a low to mid dose continuous infusion.
This clinical application of the IVC+ Protocol is centered on a 2-day cycle of a rapid PULSE infusion immediately followed by a PRESS continuous infusion at a rate of […] of Vitamin C per hour. Over the two week period, each pulse dose of vitamin C is increased to a therapeutic dose as outlined in the original Riordan IVC Protocol [See for example. Ref 1]. Each week back to back pulse-press doses are given followed by a final pulse dose leading into a rest period. These cyclic rest periods are important wherein they provide recovery time necessary for the patient to assimilate the oxidative stress generated within the body.
The protocol has been used on about six subjects to ascertain safety, feasibility and usability of the pump and in coordinating the process with existing therapies. The types of cancer for these patients varied.

terminal cancer patients [4] = test: Lymphocyte and neutrophil counts and neutrophil-to-lymphocyte ratio in cancer patients on continuous IVC (updated analysis of Riordan trial); assay type: in vivo, human
Description: as §1
as §2, with “cancer. All patients had several chemotherapy/radiation treatments before entering the study.” for “cancer.”
as §3

terminal cancer patients [5] = conditions: 10 g/day continuous IV infusion for 10 days, then oral 10-30 g/day; 100 terminal cancer patients; cited from earlier work
[6] = Plasma ascorbate during continuous IVC infusion (Riordan Phase I trial); assay type: in vivo, human; conditions: continuous infusion 150-710 mg/kg/day, cancer patients
Description: as §1
as §2, with “cancer. All patients had several chemotherapy/radiation treatments before entering the study.” for “cancer.”
The most obvious effect of IVC therapy was to increase patient vitamin C levels. […] In fact, ten out of twenty-four subjects entered the trial with plasma ascorbate concentrations undetectable by the colorimetric ascorbate assay used at that time, with another four having ascorbate concentrations below the normal range (FIG. 1). IVC infusion increased plasma levels to 1 mM. […]

[7] = rate of increase of LDH before vs after treatment
[8] = a patient suffering from cancer

Q: With `O=C1O[C@H]([C@@H](O)CO)C(O)=C1O` [IVC, L-ascorbic acid] as the compound, how does the “Grade 3 adverse events” value (terminal cancer patients [1]; considered possibly related to the ascorbate therapy) read?
A: Its value is “Most of the Grade 3 events involved hypokalemia”.

Q: What about the “side effects, overall severity” value (terminal cancer patients [1]; continuous IVC infusion trial) of the same compound?
A: Its value is “mostly minor”.

Q: What about the “renal function indicators BUN and creatinine” value (terminal cancer patients [1]; during therapy) of the same compound?
A: The value was “remained relatively stable”.

Q: What about the uric acid (terminal cancer patients [1]; during therapy) of the same compound?
A: Its uric acid is “decreased during therapy”.

Q: And the “grade of the most common side effects” value (terminal cancer patients [1]; in vivo)?
A: The value was “generally minor (Grade 1)”.

Q: And the “dry skin or mouth” value (terminal cancer patients [1]; of 24 subjects)?
A: Its value is 7 subjects.

Q: And the edema (terminal cancer patients [1]; of 24 subjects)?
A: Its edema is 7 subjects.

Q: And the fatigue (terminal cancer patients [1]; of 24 subjects)?
A: Its fatigue is 6 subjects.

Q: What about the injector port occlusion (terminal cancer patients [1]; of 24 subjects) of the same compound?
A: Its injector port occlusion is 10 subjects.

Q: What about the nausea (terminal cancer patients [1]; of 24 subjects) of the same compound?
A: The nausea was 11 subjects.

Q: And the “subjects with BUN increases during therapy” value (terminal cancer patients [1]; of 24 subjects)?
A: Its value is “four”.

Q: And the median survival time (terminal cancer patients [2]; participants with initial LDH higher than normal range (LDH>245 U/L))?
A: The median survival time was 95 days.

Q: What about the “blood glucose levels during IVC therapy” value (terminal cancer patients [2]; patients with concentrations higher than normal range) of the same compound?
A: Its value is “decreased”.

Q: And the “patients with LDH rate of growth decreased” value (terminal cancer patients [2]; [7])?
A: Its value is 38 % of patients.

Q: And the “patients with LDH rate of growth increased” value (terminal cancer patients [2]; [7])?
A: Its value is 28.6 % of patients.

Q: And the “patients with LDH rate of growth not changed” value (terminal cancer patients [2]; [7])?
A: Its value is 33.4 % of patients.

Q: What about the median survival time (terminal cancer patients [2]; subjects with normal initial LDH values) of the same compound?
A: The median survival time was 173 days.

Q: And the “development of chemo resistance” value [3, 8]?
A: The value was “no signs of the development of chemo resistance”.

Q: What about the efficacy of treatment [3, 8] of the same compound?
A: The efficacy of treatment was “appeared efficacious”.

Q: And the tolerability [3, 8]?
A: The tolerability was “well-tolerated”.

Q: And the tolerability ([3]; pulse press protocol, about six subjects, various cancers)?
A: Its tolerability is “well tolerated”.

Q: What about the “median improvement in the lymphocyte count” value (terminal cancer patients [4]; all patients with lymphocyte levels lower than normal range, continuous IVC) of the same compound?
A: The value was 22%.

Q: What about the “neutrophil counts, tendency during treatment” value (terminal cancer patients [4]; most of the patients) of the same compound?
A: The value was “normalization of the neutrophil counts”.

Q: What about the “rate of growth (change) of neutrophil-to-lymphocyte ratio (NLR)” value (terminal cancer patients [4]; one week before treatment vs during treatment, continuous IVC) of the same compound?
A: Its value is “tended to decrease the rate of growth of NLR; also recorded: rate of change was decreased”.

Q: What about the neutrophil counts (terminal cancer patients [4]; patients for whom neutrophil counts are elevated) of the same compound?
A: Its neutrophil counts is “reducing neutrophil counts”.

Q: And the “lymphocyte and neutrophil counts” value (terminal cancer patients [4]; patients in whom these numbers are below normal)?
A: The value was “increase lymphocyte and neutrophil counts”.

Q: And the “median improvement in the lymphocyte count” value (terminal cancer patients [4]; patients with severe lymphopenia who completed treatment, continuous IVC)?
A: The value was 69%.

Q: And the “survival time and quality of life versus patients who had not received IVC” value (terminal cancer patients [5])?
A: Its value is “increased survival time and improved quality of life”.

Q: What about the “plasma ascorbate level reached during IVC infusion” value [6] of the same compound?
A: Its value is 1 mM.
